Reference: patent US20070082858A1, “Methods and compositions for the prevention of toxic side effects of aminoglycoside medications” (priority 2004, published 2007)
“Also recorded” adds a separate entry of the source.

What was measured:
[1] = test system: MDCK cells; assay: GTTR uptake into MDCK cells under TRPV1 agonists/antagonists, cation channel blockers, cations and pH (30-60 seconds, 20° C., FATX fixation, confocal imaging); conditions: for hydrolyzed TR penetration into the cytoplasm (control for toxicity or increased permeability): highest doses shown: 5×10^−7 M RTX; for GTTR uptake stimulated by TRPV1 agonists/antagonists: AND, SB366791 or I-RTX
Excerpt: MDCK cells were used as a model system to test regulation of GTTR uptake by conditions known to produce or modify a cation current through the TRPV1 channel. Conditions tested were varying extracellular calcium concentrations, pH, specific agonists, specific antagonists, and the non-specific cation channel blocker Ruthenium Red. In addition, we pre-mixed PIP2 with GTTR to determine whether that anionic phospholipid, known to bind gentamicin, would alter GTTR uptake. All these assays were done at room temperature (20° C.), for 30 or 60 seconds, and using doses of GTTR of 5 to 10 μg/ml, which are far below the typical therapeutic level of <300 μg/ml. Buffers used for treatment were as described for each experiment. Cells were quickly washed to replace culture medium with treatment buffer, treated as indicated, washed again after treatment, fixed immediately with 4% formaldehyde and 0.5% Triton X-100 (FATX), and washed prior to imaging.
Methods: Cells were seeded into 8-well coverglass chambers at 3000 cells/well and grown for 5 days.
Cells were washed three times with the buffer to be used in the particular experiment, treated with GTTR and experimental variable for 30 or 60 seconds at 20° C., precluding endocytosis. Following treatment, cells were rinsed three times with buffer, then fixed and delipidated with 4% formaldehyde plus 0.5% Triton X-100 (FATX) for 45 minutes. Following fixation, cells were rinsed with PBS (Invitrogen, CA) for at least 4-6 times, or until foaming in the suction pipette ceased. In contrast to previous experiments, no FBS was present in the treatment media, allowing for more rapid uptake of the antibiotic-based GTTR.
MDCK cells were washed with Hank's buffered salt solution (HBSS; Invitrogen, CA), then placed into buffers of varying potassium concentrations. HBSS was mixed with equi-osmolar KCl/HBSS to produce the required K^+ concentrations. Cells were treated with 1 μg/mL GTTR for 1 minute, then washed and fixed as described above.
Cells were washed with PBS (Invitrogen, CA), then placed into buffers containing varying concentrations of calcium, obtained by mixing HBSS with equimolar CaCl2, each at pH 7.3. Cells were treated with 5 μg/mL of GTTR for 30 seconds, then washed and fixed as above.
Cells were washed with saline, then treated with 5 μg/mL of GTTR in saline buffers of varying pH for 30 seconds, then washed and fixed as above. Sodium hydroxide and hydrochloric acid were used to alter pH. These experiments were performed in three different saline buffers: (i) PBS (no calcium), (ii) a mixture of […] for a final calcium concentration of 0.32 mM, and (iii) a mixture of three parts PBS to one part HBSS for a final calcium concentration of 0.97 mM.
Cells were washed three times with Ca^++-free saline (0.9% NaCl), then treated with 5 μg/mL GTTR and one of the following for 30 seconds: TRPV1 agonists (resiniferatoxin [RTX]; or anandamide [AND]; Alexis Biochemicals, San Diego, Calif.); or antagonists (iodo-RTX, or SB 366791; Tocris, Ellisville, Mo.). Cells were then washed in saline and fixed as above.
Cells were washed three times with Ca^++-free 0.9% NaCl, then treated with 5 μg/mL GTTR and one of the following for 30 seconds: 100 μM Ruthenium Red, 100 μM Ruthenium Red plus one of the TRPV1 agonists or antagonists described above; or lanthanum (La^+++) at 0.5 or 5 mM.

[2] = test system: bullfrog saccular hair cells; assay: GTTR uptake in bullfrog saccular explants with TRPV1 regulators; type: cell-based
Protocol: Bullfrogs (Rana catesbeiana) were anesthetized with 0.2% MS-222 and chilled before decapitation. The temporal bones were excised in cold oxygenated HEPES-buffered saline (HBS) containing 110 mM Na+; 2 mM K+; 4 mM Ca2+; 120 mM Cl−; 3 mM D-glucose, and 5 mM HEPES (pH=7.25; 220 mOsmols). Each saccule was isolated and the otolithic membrane removed by proteolytic digestion for 20 minutes in oxygenated 50 μg/ml subtilopeptidase BPN (Sigma) at room temperature. Saccular explants were then incubated in Wolf-Quimby culture medium (containing 1 mM Ca2+; Life Technologies) supplemented with 100 μg/ml ciprofloxacin in a 5% CO2 environment at 25° C. (Steyger et al. 1997; Steyger et al. 1998). Gentamicin-treated explants were incubated in the above culture media, supplemented with 300 μg/ml GT/GTTR.

[3] = test system: inner ear explants; assay: GTTR uptake in explants of bullfrog and murine inner ears (Example 9); type: cell-based
Excerpt: Deafness and nephrotoxicity are serious consequences of aminoglycoside (AG) therapy. As discussed above, in cultured kidney cells, the non-endocytotic component of fluorescently-labeled gentamicin (GTTR) uptake was regulated by TRPV1 channel agonists and antagonists (pH, Ca^++, RTX). This example discusses the influence of these modulators on GTTR uptake in explants of bullfrog and murine inner ears.

[4] = test system: murine cochlear explants; assay: GTTR uptake in murine cochlear explants with RTX; type: cell-based; conditions: level of OHC nuclei
[5] = cited from earlier work

## CCCCC/C=C\C/C=C\C/C=C\C/C=C\CCCC(=O)NCCO [AND, anandamide]
[1]; AND 10^−4 M, calcium-free saline pH 7.3
  GTTR uptake: little, or no, increase over controls; also recorded: little or no increase over controls
[1]; AND 10^−5 M, calcium-free saline pH 7.3 (Example 1: greater extent than 10^−6 M)
  GTTR uptake: increased, although not to the level seen with RTX
[1]; AND 10^−6 M, calcium-free saline pH 7.3
  GTTR uptake: increased, although not to the level seen with RTX

## [Gd+3] [Gd^+++, Gadolinium]
[1]; 0.5, 5, or 50 mM Gd^+++ in HBSS pH 7.3, 30 seconds
  GTTR uptake: serially decreased

## C=C(C)[C@]12C[C@@H](C)[C@@]34O[C@](Cc5ccccc5)(O[C@@H]1[C@@H]3C=C(COC(=O)Cc1cc(I)c(O)c(OC)c1)C[C@]1(O)C(=O)C(C)=C[C@@H]41)O2 [I-RTX]
[2]; iodo-RTX
  GTTR uptake in saccular hair cells: significantly enhanced by iodo-RTX
[1]; 10^−5 M I-RTX with 0.16 or 2.0 mM added calcium, pH 7.0
  GTTR uptake: still caused increased GTTR uptake
[1]; 10^−5 M I-RTX, saline without added calcium, pH 7.0, 1 μg/mL GTTR 30 seconds
  GTTR uptake: increased GTTR uptake
[1]; I-RTX 10^−5 M, calcium-free saline pH 7.3
  GTTR fluorescence: well over the upper limit of the available 0 to 255 gray scale
[1]; 10^−5 M I-RTX
  hydrolyzed TR penetration into the cytoplasm (control for toxicity or increased permeability): Neither I-RTX or RTX induced TR penetration into the cytoplasm
[1]; iodo-RTX dose series 10^−7 to 10^−5 M, calcium-free saline pH 7.3, listed as 1-RTX
  GTTR uptake, effect compared with SB366791: dramatic; also recorded: more dramatic

## [Cl-].[K+] [K^+, KCl]
[1]; K^+ increased from 10 mM to 140 mM vs 5.8 mM, HBSS pH 7.3, 1 minute
  GTTR uptake: clear and considerable decrease in GTTR uptake
[3]; potassium depolarization of explants
  GTTR uptake: decreased GTTR uptake

## N.N.N.N.N.N.N.N.N.N.N.N.N.N.[Cl-].[Cl-].[Cl-].[Cl-].[Cl-].[Cl-].[O-2].[O-2].[Ru+3].[Ru+3].[Ru+4] [RR, Ruthenium Red]
[2]; Ruthenium Red
  GTTR uptake in saccular hair cells: significantly reduced by Ruthenium Red
[2]; Ruthenium Red in explants co-treated with iodo-RTX
  GTTR uptake in saccular hair cells: significantly reduced by Ruthenium Red
[1]; 10 mM RR alone (Example 1)
  GTTR uptake: took up less GTTR than controls
[1]; 10 mM RR plus RTX, AND effect not completely blocked (Example 1)
  GTTR uptake stimulated by TRPV1 agonists/antagonists: blocked GTTR increases stimulated by RTX, AND, SB366791, and I-RTX
[1]; 10^−5 M RR alone (Example 11)
  GTTR uptake: took up less GTTR than controls
[1]; 10^−5 M RR plus RTX, AND effect not completely blocked (Example 11)
  GTTR uptake stimulated by TRPV1 agonists/antagonists: blocked GTTR increases stimulated by RTX, AND, SB366791, and I-RTX

## C=C(C)[C@]12C[C@@H](C)[C@@]34O[C@](Cc5ccccc5)(O[C@@H]1[C@@H]3C=C(COC(=O)Cc1ccc(O)c(OC)c1)C[C@]1(O)C(=O)C(C)=C[C@@H]41)O2 [RTX, resiniferatoxin]
[2]; RTX and Ca++ co-treatment
  GTTR uptake in saccular hair cells: reduced by co-treatment with RTX, and Ca++
[2]; RTX co-administered with GTTR
  GTTR uptake in saccular hair cells: significantly reduced by RTX
[1]; 5×10^−9 M RTX with 0.16 or 2.0 mM added calcium, pH 7.0
  GTTR uptake: reduced GTTR uptake compared to controls at the same calcium levels
[1]; 5×10^−9 M RTX, saline without added calcium, pH 7.0, 1 μg/mL GTTR 30 seconds
  GTTR uptake: increased GTTR uptake
[1]; RTX 5×10^−7 M, calcium-free saline pH 7.3, 5 μg/mL GTTR 30 seconds
  GTTR uptake: little or no change over control
[1]; RTX 5×10^−8 M, calcium-free saline pH 7.3, 5 μg/mL GTTR 30 seconds
  GTTR uptake: increased, but to a lesser extent
[1]; RTX 5×10^−9 M, calcium-free saline pH 7.3, 5 μg/mL GTTR 30 seconds
  GTTR uptake: significantly increased
[1]; RTX 10^−6 M, calcium-free saline pH 7.3
  GTTR uptake: little or no change over control
[1]; RTX 10^−7 M, calcium-free saline pH 7.3
  GTTR uptake: increased to a lesser extent
[1]; RTX 10^−8 M, calcium-free saline pH 7.3
  GTTR uptake: significantly increased
[1]; RTX with calcium concentrations as low as 0.08 mM
  GTTR uptake: inhibited GTTR uptake
[1]; combination of 2 mM Ca^++ and 5×10^−9 RTX
  GTTR uptake: greatly reduced GTTR uptake
[1]; 10^−5 M I-RTX
  hydrolyzed TR penetration into the cytoplasm (control for toxicity or increased permeability): Neither I-RTX or RTX induced TR penetration into the cytoplasm
[4]; RTX plus Ca++
  GTTR uptake in the organ of Corti: reduced further by RTX plus Ca++
[4]; RTX
  GTTR uptake in the organ of Corti: reduced by RTX
[3]; RTX at 0.16 mM Ca^++
  GTTR uptake: enhanced GTTR uptake
[3]; RTX at physiological Ca^++ levels
  GTTR uptake: reduced GTTR uptake

## COc1cccc(NC(=O)/C=C/c2ccc(Cl)cc2)c1 [SB366791]
[1]; SB366791 10^−7 M to 10^−5 M, calcium-free saline pH 7.3
  GTTR uptake: increased GTTR uptake significantly; also recorded: serially increased GTTR uptake

## CC(C)[C@@H]1NC(=O)[C@H](C)OC(=O)[C@@H](C(C)C)NC(=O)[C@@H](C(C)C)OC(=O)[C@H](C(C)C)NC(=O)[C@H](C)OC(=O)[C@@H](C(C)C)NC(=O)[C@@H](C(C)C)OC(=O)[C@H](C(C)C)NC(=O)[C@H](C)OC(=O)[C@@H](C(C)C)NC(=O)[C@@H](C(C)C)OC1=O [Valinomycin]
[1]; 10 μg/mL valinomycin in HBSS pH 7.3, 5 μg/mL GTTR 30 seconds
  GTTR uptake: decreased the uptake of GTTR compared to control cells

## [Ca+2].[Cl-].[Cl-] [calcium, calcium chloride]
[1]; 0.16 mM Ca^++ vs no calcium added or 2.0 mM, pH 7.0, 1 μg/mL GTTR
  GTTR uptake: higher
[1]; 0.16 mM calcium vs no calcium added, saline pH 7.3
  GTTR uptake: increased
[1]; calcium concentrations above 0.16 mM, saline pH 7.3
  GTTR uptake: GTTR uptake decreased
[1]; calcium levels higher than 1.8 mM
  GTTR uptake: almost completely blocking uptake
[1]; physiological calcium levels (1.8 mM)
  GTTR uptake: inhibitory
[3]; 0.16 mM Ca^++ compared to 0.0 mM Ca^++
  GTTR uptake: greater GTTR uptake

## [H]/N=C(/N)N[C@H]1[C@H](O)[C@@H](O)[C@H](O[C@@H]2O[C@@H](C)[C@](O)(C=O)[C@H]2O[C@@H]2O[C@@H](CO)[C@H](O)[C@@H](O)[C@@H]2NC)[C@@H](N/C(N)=N\[H])[C@@H]1O [streptomycin]
[5]; 1 gram per day
  incidence of vestibular impairment: 25%
[5]; 2 grams daily for 60 to 120 days
  patients displaying some vestibular impairment: ~75%
